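Grown in 96-well plates, cells were treated for 48 hours with each compound at five concentrations. Insufficient inhibition: endpoint recorded as highest concentration tested. The concentration for 50% growth inhibition is given as GI50. TGI marks complete inhibition of growth.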
How the values were obtained:
Assay in all cases: NCI-60 cell line screen, 48 h
[1] = test system: SW-620 colon
[2] = test system: OVCAR-8 ovarian
[3] = test system: KM12 colon
[4] = test system: HCT-15 colon
[5] = test system: MALME-3M melanoma
[6] = test system: TK-10 renal
[7] = test system: HOP-92 NSCLC
[8] = test system: U251 CNS
[9] = test system: UO-31 renal
[10] = test system: EKVX NSCLC
[11] = test system: HS 578T breast
[12] = test system: BT-549 breast
[13] = test system: UACC-62 melanoma
[14] = test system: IGROV1 ovarian
[15] = test system: OVCAR-4 ovarian
[16] = test system: M14 melanoma
[17] = test system: MDA-N
[18] = test system: PC-3 prostate
[19] = test system: A549 NSCLC
[20] = test system: LOX IMVI melanoma
[21] = test system: RPMI-8226 leukemia
[22] = test system: MCF7 breast
[23] = test system: NCI/ADR-RES ovarian
[24] = test system: SF-295 CNS
[25] = test system: SF-539 CNS
[26] = test system: SF-268 CNS
[27] = test system: MDA-MB-435
[28] = test system: A498 renal
[29] = test system: UACC-257 melanoma
[30] = test system: HT29 colon
[31] = test system: SNB-19 CNS
[32] = test system: CCRF-CEM leukemia
[33] = test system: NCI-H460 lung
[34] = test system: CAKI-1 renal
[35] = test system: HCT-116 colon
[36] = test system: NCI-H522 lung
[37] = test system: MDA-MB-231 breast
[38] = test system: COLO 205 colon
[39] = test system: SK-MEL-5 melanoma
[40] = test system: HL-60(TB) leukemia
[41] = test system: MOLT-4 leukemia
[42] = test system: OVCAR-5 ovarian
[43] = test system: OVCAR-3 ovarian
[44] = test system: SK-MEL-28 melanoma
[45] = test system: HCC-2998 colon
[46] = test system: SK-MEL-2 melanoma
[47] = test system: K-562 leukemia
[48] = test system: SN12C renal
[49] = test system: NCI-H23 lung
[50] = test system: NCI-H226 lung
[51] = test system: SR leukemia
[52] = test system: SNB-75 CNS
[53] = test system: RXF 393 renal
[54] = test system: HOP-62 NSCLC
[55] = test system: ACHN renal
[56] = test system: 786-0 renal
[57] = test system: DU-145 prostate
[58] = test system: T-47D breast
[59] = test system: SK-OV-3 ovarian

Cc1cc(N(CCOS(C)(=O)=O)CCOS(C)(=O)=O)ccc1C=O
TGI [1]: > 100 µM | TGI [2]: > 100 µM | TGI [3]: 54.6 µM | TGI [4]: 71.8 µM | TGI [5]: 28.1 µM | TGI [6]: > 100 µM | TGI [7]: 39 µM | TGI [8]: 67.4 µM | TGI [9]: 35.1 µM | TGI [10]: 22.9 µM | TGI [11]: 94 µM | TGI [12]: > 100 µM | TGI [13]: 15.7 µM | TGI [14]: 39.2 µM | TGI [15]: 45.3 µM | TGI [16]: 30.5 µM | TGI [17]: 26.4 µM | TGI [18]: > 100 µM | TGI [19]: 45.7 µM | TGI [20]: 58.7 µM | TGI [21]: > 100 µM | TGI [22]: 32 µM | TGI [23]: 60.5 µM | TGI [24]: > 100 µM | TGI [25]: 2.88 µM | TGI [26]: > 100 µM | TGI [27]: 28.8 µM | TGI [28]: 7.29 µM | TGI [29]: 48 µM | TGI [30]: > 100 µM | TGI [31]: > 100 µM | TGI [32]: > 100 µM | TGI [33]: 6.35 µM | TGI [34]: 1.25 µM | TGI [35]: > 100 µM | TGI [36]: 0.379 µM | TGI [37]: 94.6 µM | TGI [38]: 4.39 µM | TGI [39]: > 100 µM | TGI [40]: > 100 µM | TGI [41]: 14.8 µM | TGI [42]: 33.8 µM | TGI [43]: 70.9 µM | TGI [44]: 31.3 µM | TGI [45]: 24.6 µM | TGI [46]: 72.9 µM | TGI [47]: > 100 µM | TGI [48]: 11.6 µM | TGI [49]: 36.9 µM

CC1CCC(C(=O)O)(C(Br)C(=O)O)CC1 (stereo unspecified)
TGI [1]: > 100 µM | TGI [2]: > 100 µM | TGI [3]: > 100 µM | TGI [4]: > 100 µM | TGI [6]: > 100 µM | TGI [7]: > 100 µM | TGI [8]: > 100 µM | TGI [9]: > 100 µM | TGI [10]: > 100 µM | TGI [50]: > 100 µM | TGI [12]: > 100 µM | TGI [13]: > 100 µM | TGI [14]: > 100 µM | TGI [51]: > 100 µM | TGI [15]: > 100 µM | TGI [16]: > 100 µM | TGI [17]: > 100 µM | TGI [18]: > 100 µM | TGI [19]: > 100 µM | TGI [20]: > 100 µM | TGI [21]: > 100 µM | TGI [23]: > 100 µM | TGI [52]: > 100 µM | TGI [24]: > 100 µM | TGI [53]: > 100 µM | TGI [27]: > 100 µM | TGI [54]: > 100 µM | TGI [55]: > 100 µM | TGI [29]: > 100 µM | TGI [30]: > 100 µM | TGI [56]: > 100 µM | TGI [31]: > 100 µM | TGI [32]: > 100 µM | TGI [33]: > 100 µM | TGI [34]: > 100 µM | TGI [35]: > 100 µM | TGI [37]: > 100 µM | TGI [39]: > 100 µM | TGI [40]: > 100 µM | TGI [41]: > 100 µM | TGI [42]: > 100 µM | TGI [43]: > 100 µM | TGI [44]: > 100 µM | TGI [46]: > 100 µM | TGI [47]: > 100 µM | TGI [57]: > 100 µM | TGI [48]: > 100 µM | TGI [49]: > 100 µM

CN(C(=O)c1ccc(C(F)(F)F)cc1)c1ccc(Oc2ccc3c(c2)cc(C(=O)N2CCN(Cc4ccc(OC(F)F)cc4)CC2)n3C)nc1
GI50 [1]: 98.2 µM | TGI [1]: > 100 µM | GI50 [2]: 1.71 µM | TGI [2]: > 100 µM | GI50 [3]: 35.9 µM | TGI [3]: > 100 µM | GI50 [4]: > 100 µM | TGI [4]: > 100 µM | GI50 [5]: > 34.9 µM | TGI [5]: > 100 µM | GI50 [6]: 15.7 µM | TGI [6]: > 96.1 µM | GI50 [7]: 3.02 µM | TGI [7]: > 88.2 µM | GI50 [8]: 6 µM | TGI [8]: > 100 µM | GI50 [9]: 4.22 µM | TGI [9]: > 100 µM | GI50 [10]: < 0.01 µM | TGI [10]: > 100 µM | GI50 [11]: > 91.5 µM | TGI [11]: > 100 µM | GI50 [50]: 1.44 µM | TGI [50]: > 100 µM | GI50 [12]: 6.71 µM | TGI [12]: > 100 µM | GI50 [13]: 3.96 µM | TGI [13]: > 100 µM | GI50 [14]: > 100 µM | TGI [14]: > 100 µM | GI50 [51]: < 0.01 µM | TGI [51]: > 100 µM | GI50 [15]: < 0.01 µM | TGI [15]: > 49.7 µM | GI50 [16]: > 100 µM | TGI [16]: > 100 µM | GI50 [18]: 2.24 µM | TGI [18]: > 100 µM | GI50 [19]: 3.23 µM | TGI [19]: > 100 µM | GI50 [58]: 0.253 µM | TGI [58]: > 58.2 µM | GI50 [20]: 0.882 µM | TGI [20]: > 100 µM | GI50 [21]: 0.156 µM | TGI [21]: > 100 µM | GI50 [22]: 0.515 µM | TGI [22]: 43.4 µM | GI50 [23]: 0.437 µM | TGI [23]: > 100 µM | GI50 [52]: 11.7 µM | TGI [52]: > 84 µM | GI50 [24]: < 0.01 µM | TGI [24]: > 100 µM | GI50 [53]: 49.2 µM | TGI [53]: > 100 µM | GI50 [25]: > 100 µM | TGI [25]: > 100 µM | GI50 [26]: > 100 µM | TGI [26]: > 100 µM | GI50 [59]: > 100 µM | TGI [59]: > 100 µM | GI50 [27]: 3.73 µM | TGI [27]: > 100 µM | GI50 [28]: 0.729 µM | TGI [28]: > 100 µM | TGI [54]: > 100 µM | GI50 [55]: > 100 µM | TGI [55]: > 100 µM | GI50 [29]: 0.138 µM | TGI [29]: > 100 µM | GI50 [30]: 33.2 µM | TGI [30]: > 100 µM | GI50 [56]: > 100 µM | TGI [56]: > 100 µM | GI50 [31]: 34.9 µM | TGI [31]: > 100 µM | TGI [32]: > 100 µM | GI50 [33]: 3.25 µM | TGI [33]: > 100 µM | GI50 [34]: 2.27 µM | TGI [34]: > 100 µM | GI50 [35]: < 0.01 µM | TGI [35]: > 100 µM | GI50 [36]: 0.677 µM | TGI [36]: > 90 µM | GI50 [37]: > 80.2 µM | TGI [37]: > 100 µM | GI50 [38]: 60 µM | TGI [38]: > 100 µM | GI50 [39]: < 0.0213 µM | TGI [39]: 4.82 µM | GI50 [40]: < 0.012 µM | TGI [40]: > 100 µM | GI50 [41]: 0.881 µM | TGI [41]: > 100 µM | GI50 [42]: > 100 µM | TGI [42]: > 100 µM | GI50 [43]: 11.3 µM | TGI [43]: > 100 µM | GI50 [44]: 63.2 µM | TGI [44]: > 100 µM | GI50 [45]: > 100 µM | TGI [45]: > 100 µM | GI50 [46]: 11.9 µM | TGI [46]: > 100 µM | GI50 [47]: < 0.01 µM | TGI [47]: > 100 µM | GI50 [57]: > 100 µM | TGI [57]: > 100 µM | GI50 [48]: > 100 µM | TGI [48]: > 100 µM | GI50 [49]: < 0.01 µM | TGI [49]: > 100 µM
